Measurements as given in ChEMBL document CHEMBL3779774, “Efficient synthesis of novel disubstituted pyrido[3,4-b]pyrazines for the design of protein kinase inhibitors” (Medchemcomm, 2016).

Columns and labels:
[1] = biological target: Mitogen-activated protein kinase 1 (Homo sapiens, UniProt P28482); experiment: Inhibition of recombinant ERK2 (unknown origin) after 1 hr by Alphascreen assay
[2] = biological target: Homeodomain-interacting protein kinase 1 (Homo sapiens, UniProt Q86Z02); experiment: Inhibition of N-terminal His6-tagged recombinant human HIPK1 (158 to 555 residues) after 1 hr by Alphascreen assay
[3] = biological target: Serine/threonine-protein kinase pim-1 (Homo sapiens, UniProt P11309); experiment: Inhibition of N-terminal GST-tagged recombinant human full length Pim-1 expressed in Escherichia coli after 1 hr by Alphascreen assay
[4] = biological target: Vascular endothelial growth factor receptor 2 (Homo sapiens, UniProt P35968); experiment: Inhibition of N-terminal His6-tagged human recombinant KDR (790 to end residues) expressed in baculovirus infected insect Sf21 cells after 1 hr by Alphascreen assay
[5] = biological target: High affinity nerve growth factor receptor (Homo sapiens, UniProt P04629); experiment: Inhibition of N-terminal His6-tagged human recombinant TrkA (440 to end residues) expressed in baculovirus infected insect Sf21 cells after 1 hr by Alphascreen assay
[6] = biological target: Tyrosine-protein kinase ABL1 (Homo sapiens, UniProt P00519); experiment: Inhibition of recombinant c-Abl (unknown origin) after 1 hr by Alphascreen assay
[7] = biological target: Tyrosine-protein kinase Yes (Homo sapiens, UniProt P07947); experiment: Inhibition of N-terminal His6-tagged human recombinant Yes expressed in baculovirus infected insect Sf21 cells after 1 hr by Alphascreen assay
Tyrosine-protein kinase Yes, sequence (P07947 whole entry): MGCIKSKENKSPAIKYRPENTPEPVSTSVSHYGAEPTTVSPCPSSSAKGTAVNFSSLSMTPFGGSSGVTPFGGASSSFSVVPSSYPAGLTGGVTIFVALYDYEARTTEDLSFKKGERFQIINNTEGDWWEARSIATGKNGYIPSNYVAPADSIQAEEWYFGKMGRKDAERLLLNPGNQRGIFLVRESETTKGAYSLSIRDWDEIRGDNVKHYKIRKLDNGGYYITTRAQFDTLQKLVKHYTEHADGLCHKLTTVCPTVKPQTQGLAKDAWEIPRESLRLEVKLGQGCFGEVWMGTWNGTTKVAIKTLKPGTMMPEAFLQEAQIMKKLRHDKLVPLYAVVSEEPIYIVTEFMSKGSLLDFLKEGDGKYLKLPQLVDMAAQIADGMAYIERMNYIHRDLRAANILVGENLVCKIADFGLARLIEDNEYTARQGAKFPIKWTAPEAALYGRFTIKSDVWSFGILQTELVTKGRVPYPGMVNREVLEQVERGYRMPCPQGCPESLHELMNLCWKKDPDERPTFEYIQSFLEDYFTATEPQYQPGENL

Vascular endothelial growth factor receptor 2, sequence (P35968 whole entry): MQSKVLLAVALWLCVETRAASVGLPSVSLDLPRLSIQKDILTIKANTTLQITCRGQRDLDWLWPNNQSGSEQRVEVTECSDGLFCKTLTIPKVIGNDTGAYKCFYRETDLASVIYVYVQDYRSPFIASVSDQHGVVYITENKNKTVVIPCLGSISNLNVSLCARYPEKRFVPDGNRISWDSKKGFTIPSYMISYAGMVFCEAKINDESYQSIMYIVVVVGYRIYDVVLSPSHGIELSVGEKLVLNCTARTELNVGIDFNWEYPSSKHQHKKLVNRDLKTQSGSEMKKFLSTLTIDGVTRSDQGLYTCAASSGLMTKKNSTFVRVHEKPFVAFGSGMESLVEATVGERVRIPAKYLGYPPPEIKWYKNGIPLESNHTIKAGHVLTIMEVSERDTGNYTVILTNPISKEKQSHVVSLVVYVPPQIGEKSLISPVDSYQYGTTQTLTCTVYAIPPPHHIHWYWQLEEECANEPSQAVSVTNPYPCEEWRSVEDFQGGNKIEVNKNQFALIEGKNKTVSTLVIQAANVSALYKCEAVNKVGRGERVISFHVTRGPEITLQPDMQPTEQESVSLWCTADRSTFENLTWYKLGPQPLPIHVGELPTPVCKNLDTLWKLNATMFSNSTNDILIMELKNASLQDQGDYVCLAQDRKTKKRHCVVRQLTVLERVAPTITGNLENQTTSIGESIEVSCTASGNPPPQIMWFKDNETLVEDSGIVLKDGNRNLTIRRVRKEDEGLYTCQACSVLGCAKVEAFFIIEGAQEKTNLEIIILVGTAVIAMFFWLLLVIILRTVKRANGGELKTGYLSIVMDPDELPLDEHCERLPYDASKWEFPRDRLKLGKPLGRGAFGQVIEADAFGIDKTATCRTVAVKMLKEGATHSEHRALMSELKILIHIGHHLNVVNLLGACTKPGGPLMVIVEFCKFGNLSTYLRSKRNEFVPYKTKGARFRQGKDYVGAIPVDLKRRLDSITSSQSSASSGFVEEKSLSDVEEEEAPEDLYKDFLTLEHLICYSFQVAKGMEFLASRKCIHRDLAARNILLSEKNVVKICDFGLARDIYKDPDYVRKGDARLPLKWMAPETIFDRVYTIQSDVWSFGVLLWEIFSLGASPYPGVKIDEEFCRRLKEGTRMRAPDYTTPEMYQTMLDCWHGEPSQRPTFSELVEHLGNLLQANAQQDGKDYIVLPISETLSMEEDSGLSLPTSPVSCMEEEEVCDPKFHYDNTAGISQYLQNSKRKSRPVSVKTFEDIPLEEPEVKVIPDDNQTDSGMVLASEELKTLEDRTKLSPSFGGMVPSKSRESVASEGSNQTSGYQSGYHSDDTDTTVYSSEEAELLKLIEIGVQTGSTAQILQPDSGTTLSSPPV
Serine/threonine-protein kinase pim-1, sequence (P11309 whole entry): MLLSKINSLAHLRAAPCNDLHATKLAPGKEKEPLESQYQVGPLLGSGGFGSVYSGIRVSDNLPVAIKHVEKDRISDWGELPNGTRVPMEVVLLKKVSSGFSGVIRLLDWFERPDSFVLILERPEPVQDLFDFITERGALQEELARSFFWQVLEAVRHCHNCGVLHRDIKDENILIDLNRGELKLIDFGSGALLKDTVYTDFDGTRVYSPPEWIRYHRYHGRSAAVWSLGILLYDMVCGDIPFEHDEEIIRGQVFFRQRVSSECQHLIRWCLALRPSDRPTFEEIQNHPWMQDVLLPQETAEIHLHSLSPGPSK
Homeodomain-interacting protein kinase 1, sequence (Q86Z02 whole entry, the tested form may be a part): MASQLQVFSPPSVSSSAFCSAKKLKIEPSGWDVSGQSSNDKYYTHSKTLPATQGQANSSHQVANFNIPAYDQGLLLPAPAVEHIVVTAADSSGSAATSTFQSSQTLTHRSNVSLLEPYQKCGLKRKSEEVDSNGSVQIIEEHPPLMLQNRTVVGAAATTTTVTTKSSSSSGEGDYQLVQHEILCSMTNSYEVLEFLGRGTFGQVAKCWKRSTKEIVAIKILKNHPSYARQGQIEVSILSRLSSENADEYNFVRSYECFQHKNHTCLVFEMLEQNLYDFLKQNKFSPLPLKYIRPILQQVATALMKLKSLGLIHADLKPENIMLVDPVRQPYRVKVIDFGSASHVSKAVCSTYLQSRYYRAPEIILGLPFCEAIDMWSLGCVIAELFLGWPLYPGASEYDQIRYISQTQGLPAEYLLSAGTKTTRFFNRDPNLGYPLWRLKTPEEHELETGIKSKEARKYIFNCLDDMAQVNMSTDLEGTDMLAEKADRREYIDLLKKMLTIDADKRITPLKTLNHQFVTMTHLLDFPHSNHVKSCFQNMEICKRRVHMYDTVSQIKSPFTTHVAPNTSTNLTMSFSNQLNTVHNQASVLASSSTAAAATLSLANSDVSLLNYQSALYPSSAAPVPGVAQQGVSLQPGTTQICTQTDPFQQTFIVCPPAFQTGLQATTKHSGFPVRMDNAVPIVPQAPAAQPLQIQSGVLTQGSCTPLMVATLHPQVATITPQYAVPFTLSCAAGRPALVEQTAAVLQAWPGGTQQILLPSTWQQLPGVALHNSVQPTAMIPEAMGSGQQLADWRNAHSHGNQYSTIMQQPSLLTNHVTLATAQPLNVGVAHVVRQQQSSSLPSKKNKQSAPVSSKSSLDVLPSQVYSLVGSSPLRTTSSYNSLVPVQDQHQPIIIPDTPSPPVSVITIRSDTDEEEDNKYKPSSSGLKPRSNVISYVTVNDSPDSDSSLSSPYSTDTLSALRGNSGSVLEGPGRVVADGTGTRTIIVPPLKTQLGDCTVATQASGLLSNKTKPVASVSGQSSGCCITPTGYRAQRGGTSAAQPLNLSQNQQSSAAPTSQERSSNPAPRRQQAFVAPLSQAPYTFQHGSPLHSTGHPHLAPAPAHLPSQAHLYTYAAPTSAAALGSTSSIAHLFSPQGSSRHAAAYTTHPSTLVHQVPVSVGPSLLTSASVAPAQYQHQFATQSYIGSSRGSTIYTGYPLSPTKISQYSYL
Mitogen-activated protein kinase 1, sequence (P28482 whole entry, the tested form may be a part): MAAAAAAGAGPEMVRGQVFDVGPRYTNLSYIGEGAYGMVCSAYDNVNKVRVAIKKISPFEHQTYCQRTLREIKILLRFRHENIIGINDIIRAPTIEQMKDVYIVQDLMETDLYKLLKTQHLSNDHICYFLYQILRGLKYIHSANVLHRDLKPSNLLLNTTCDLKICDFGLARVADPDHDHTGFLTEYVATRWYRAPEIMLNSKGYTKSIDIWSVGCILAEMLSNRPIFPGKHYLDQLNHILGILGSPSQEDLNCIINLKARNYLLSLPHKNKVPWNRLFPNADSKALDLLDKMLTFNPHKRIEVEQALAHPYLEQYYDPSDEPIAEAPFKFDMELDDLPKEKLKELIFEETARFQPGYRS
High affinity nerve growth factor receptor, sequence (P04629 whole entry): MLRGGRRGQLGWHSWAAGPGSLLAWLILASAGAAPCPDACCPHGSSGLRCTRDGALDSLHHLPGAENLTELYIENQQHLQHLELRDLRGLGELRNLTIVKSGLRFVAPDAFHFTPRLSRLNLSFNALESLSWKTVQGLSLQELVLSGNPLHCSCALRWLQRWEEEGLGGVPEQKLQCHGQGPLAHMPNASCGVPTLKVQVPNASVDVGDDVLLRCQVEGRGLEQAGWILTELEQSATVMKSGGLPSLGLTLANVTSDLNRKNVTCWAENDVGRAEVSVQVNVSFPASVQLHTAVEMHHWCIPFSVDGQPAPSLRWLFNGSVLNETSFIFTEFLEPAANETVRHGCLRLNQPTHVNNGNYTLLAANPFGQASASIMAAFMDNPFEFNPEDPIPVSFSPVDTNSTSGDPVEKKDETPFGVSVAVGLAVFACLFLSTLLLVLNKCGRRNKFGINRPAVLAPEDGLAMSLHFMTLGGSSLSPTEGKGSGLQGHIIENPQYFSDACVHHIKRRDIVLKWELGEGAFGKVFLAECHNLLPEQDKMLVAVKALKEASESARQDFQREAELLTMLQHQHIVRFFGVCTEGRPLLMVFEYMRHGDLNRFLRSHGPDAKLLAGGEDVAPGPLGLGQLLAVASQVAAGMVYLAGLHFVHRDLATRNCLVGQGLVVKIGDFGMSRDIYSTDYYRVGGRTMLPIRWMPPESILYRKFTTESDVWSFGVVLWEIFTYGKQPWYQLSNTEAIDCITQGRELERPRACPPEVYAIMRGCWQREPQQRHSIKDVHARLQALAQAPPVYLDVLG

For `Fc1ccc(Nc2cncc3nc(-c4ccccc4)cnc23)cc1Cl`, the IC50 [1] was > 100 µM, the IC50 [2] was > 100 µM and the IC50 [3] was > 100 µM. The IC50 [4] was > 100 µM, the IC50 [5] was > 100 µM and the IC50 [6] was > 100 µM. The IC50 [7] was > 31.6 µM.
For `C#Cc1cccc(Nc2nccc3nc(-c4ccccc4)cnc23)c1`, the IC50 [1] was > 100 µM, the IC50 [2] was > 100 µM and the IC50 [3] was > 100 µM. The IC50 [4] was > 100 µM, the IC50 [5] was > 100 µM and the IC50 [6] was > 100 µM. For the same compound, the IC50 [7] was > 100 µM.
`COc1cccc(NC(=O)Nc2cncc3nc(-c4ccccc4)cnc23)c1` was tested, and the IC50 [1] was > 31.6 µM, the IC50 [2] was > 100 µM and the IC50 [3] was > 31.6 µM. The IC50 [4] was > 100 µM, the IC50 [5] was > 100 µM and the IC50 [6] was > 100 µM. For the same compound, the IC50 [7] was > 31.6 µM.
`c1ccc(-c2cnc3c(Nc4ccc(N5CCOCC5)cc4)nccc3n2)cc1` was tested, and the IC50 [1] was > 100 µM, the IC50 [2] was > 100 µM and the IC50 [3] was > 100 µM. For the same compound, the IC50 [4] was 16 µM, the IC50 [5] was 13.7 µM and the IC50 [6] was 11.5 µM. The IC50 [7] was 12.6 µM.
`c1ccc(-c2cnc3cnc(Nc4ccc(N5CCOCC5)cc4)cc3n2)cc1` was tested, and the IC50 [1] was > 100 µM, the IC50 [2] was > 100 µM and the IC50 [3] was > 100 µM. For the same compound, the IC50 [4] was > 100 µM, the IC50 [5] was > 100 µM and the IC50 [6] was > 100 µM. For the same compound, the IC50 [7] was > 100 µM.
`c1ccc(-c2cnc3cc(Nc4ccc(N5CCCCC5)cc4)ncc3n2)cc1` was tested, and the IC50 [1] was > 100 µM, the IC50 [2] was > 100 µM and the IC50 [3] was > 100 µM. For the same compound, the IC50 [4] was > 100 µM, the IC50 [5] was > 100 µM and the IC50 [6] was 12.9 µM. For the same compound, the IC50 [7] was 27.2 µM.
`c1ccc(-c2cnc3cncc(Nc4ccc(N5CCOCC5)cc4)c3n2)cc1` was tested, and the IC50 [1] was 8.43 µM, the IC50 [2] was 8.15 µM and the IC50 [3] was 8.3 µM. For the same compound, the IC50 [4] was 6.12 µM, the IC50 [5] was 5.32 µM and the IC50 [6] was 5.27 µM. It also gave an IC50 [7] of 5.11 µM.
In the case of `COc1ccc(-c2cnc3c(Nc4ccc(N5CCOCC5)cc4)nccc3n2)cc1`, the IC50 [1] is reported as > 100 µM, the IC50 [2] is reported as > 100 µM and the IC50 [3] is reported as > 100 µM. It also gave an IC50 [4] of 12 µM, an IC50 [5] of 6.69 µM and an IC50 [6] of 5.37 µM. The IC50 [7] was 7.07 µM.
In the case of `c1ccc(-c2cnc3c(Nc4ccc(N5CCCCC5)cc4)nccc3n2)cc1`, the IC50 [1] is reported as 1.42 µM, the IC50 [2] is reported as 0.922 µM and the IC50 [3] is reported as 4.91 µM. It also gave an IC50 [4] of 1.1 µM, an IC50 [5] of 5.81 µM and an IC50 [6] of 2.66 µM. For the same compound, the IC50 [7] was 8.1 µM.
For `COc1cccc(NC(=O)Nc2nccc3nc(-c4ccccc4)cnc23)c1`, the IC50 [1] was > 100 µM, the IC50 [2] was > 100 µM and the IC50 [3] was > 100 µM. For the same compound, the IC50 [4] was > 100 µM, the IC50 [5] was > 100 µM and the IC50 [6] was > 100 µM. For the same compound, the IC50 [7] was > 31.6 µM.
`COc1ccc(-c2cnc3cncc(Nc4ccc(N5CCCCC5)cc4)c3n2)cc1` was tested, and the IC50 [1] was 3.13 µM, the IC50 [2] was 3.21 µM and the IC50 [3] was 2.83 µM. For the same compound, the IC50 [4] was 2.05 µM, the IC50 [5] was 3.72 µM and the IC50 [6] was 2.27 µM. It also gave an IC50 [7] of 5.34 µM.
For `CCNC(=O)Nc1nccc2nc(-c3ccccc3)cnc12`, the IC50 [1] was > 100 µM, the IC50 [2] was > 100 µM and the IC50 [3] was > 100 µM. The IC50 [4] was > 100 µM, the IC50 [5] was > 100 µM and the IC50 [6] was 30.8 µM. For the same compound, the IC50 [7] was > 100 µM.
`c1ccc(Nc2cncc3ncc(-c4ccc(N5CCCCC5)cc4)nc23)cc1` was tested, and the IC50 [1] was 12.2 µM, the IC50 [2] was 11.8 µM and the IC50 [3] was 31.2 µM. For the same compound, the IC50 [4] was 11.1 µM, the IC50 [5] was 7.79 µM and the IC50 [6] was 6.84 µM. It also gave an IC50 [7] of 8.82 µM.
With `COc1cccc(Nc2cc3nc(-c4ccccc4)cnc3cn2)c1` the IC50 [1] was > 100 µM, the IC50 [2] was > 100 µM and the IC50 [3] was > 100 µM. The IC50 [4] was > 100 µM, the IC50 [5] was > 100 µM and the IC50 [6] was > 100 µM. For the same compound, the IC50 [7] was > 31.6 µM.
With `c1ccc(-c2cnc3c(Nc4ccc(N5CCCCC5)cc4)cncc3n2)cc1` the IC50 [1] was 2.34 µM, the IC50 [2] was 2.73 µM and the IC50 [3] was 2.81 µM. For the same compound, the IC50 [4] was 2.06 µM, the IC50 [5] was 3.42 µM and the IC50 [6] was 2.54 µM. The IC50 [7] was 6.21 µM.
In the case of `c1ccc(Nc2cncc3nc(-c4ccc(N5CCCCC5)cc4)cnc23)cc1`, the IC50 [1] is reported as > 100 µM, the IC50 [2] is reported as > 100 µM and the IC50 [3] is reported as > 100 µM. The IC50 [4] was > 100 µM, the IC50 [5] was > 100 µM and the IC50 [6] was 22.5 µM. For the same compound, the IC50 [7] was > 31.6 µM.
`COc1ccccc1Nc1nccc2nc(-c3ccccc3)cnc12` was tested, and the IC50 [1] was > 100 µM, the IC50 [2] was > 100 µM and the IC50 [3] was > 100 µM. The IC50 [4] was > 31.6 µM, the IC50 [5] was > 100 µM and the IC50 [6] was 16.6 µM. It also gave an IC50 [7] of 20.4 µM.
`COc1ccc(Nc2nccc3nc(-c4ccccc4)cnc23)cc1` was tested, and the IC50 [1] was > 100 µM, the IC50 [2] was > 100 µM and the IC50 [3] was > 100 µM. The IC50 [4] was > 100 µM, the IC50 [5] was > 100 µM and the IC50 [6] was > 100 µM. It also gave an IC50 [7] of 31.5 µM.
With `COc1cccc(Nc2nccc3nc(-c4ccccc4)cnc23)c1` the IC50 [1] was > 100 µM, the IC50 [2] was > 100 µM and the IC50 [3] was > 100 µM. For the same compound, the IC50 [4] was > 100 µM, the IC50 [5] was > 100 µM and the IC50 [6] was > 100 µM. For the same compound, the IC50 [7] was > 100 µM.
For `COc1cccc(Nc2cncc3ncc(-c4ccc(N5CCCCC5)cc4)nc23)c1`, the IC50 [1] was 16.6 µM, the IC50 [2] was 12.7 µM and the IC50 [3] was 11.3 µM. For the same compound, the IC50 [4] was 8.84 µM, the IC50 [5] was 9.36 µM and the IC50 [6] was 7.71 µM. The IC50 [7] was 11.1 µM.
`COc1ccc(-c2cnc3c(Nc4ccc(N5CCCCC5)cc4)nccc3n2)cc1` showed an IC50 [1] of 1.44 µM, an IC50 [2] of 7.25 µM and an IC50 [3] of 11.8 µM. It also gave an IC50 [4] of 1.99 µM, an IC50 [5] of 1.44 µM and an IC50 [6] of 1.34 µM. For the same compound, the IC50 [7] was 1.02 µM.
`COc1ccc(-c2cnc3cncc(Nc4ccc(N5CCOCC5)cc4)c3n2)cc1` was tested, and the IC50 [1] was 4.26 µM, the IC50 [2] was 4.02 µM and the IC50 [3] was 4.4 µM. For the same compound, the IC50 [4] was 3.31 µM, the IC50 [5] was 2.48 µM and the IC50 [6] was 2.49 µM. For the same compound, the IC50 [7] was 2.41 µM.
With `c1ccc(-c2cnc3cnc(Nc4ccc(N5CCCCC5)cc4)cc3n2)cc1` the IC50 [1] was 23.2 µM, the IC50 [2] was 30.5 µM and the IC50 [3] was 27.4 µM. It also gave an IC50 [4] of 17.1 µM, an IC50 [5] of 9.24 µM and an IC50 [6] of 8.71 µM. The IC50 [7] was 23.1 µM.
For `C=CCNC(=O)Nc1cncc2nc(-c3ccccc3)cnc12`, the IC50 [1] was > 31.6 µM, the IC50 [2] was > 100 µM and the IC50 [3] was > 100 µM. For the same compound, the IC50 [4] was > 31.6 µM, the IC50 [5] was > 100 µM and the IC50 [6] was > 100 µM. The IC50 [7] was > 100 µM.
`COc1ccc(NC(=O)Nc2cncc3nc(-c4ccccc4)cnc23)cc1` gave an IC50 [1] of 5.25 µM, an IC50 [2] of 20.4 µM and an IC50 [3] of 16.4 µM. For the same compound, the IC50 [4] was > 100 µM, the IC50 [5] was > 100 µM and the IC50 [6] was 25.1 µM. For the same compound, the IC50 [7] was 22.1 µM.
`c1ccc(-c2cnc3cncc(Nc4ccc(N5CCCCC5)cc4)c3n2)cc1` was tested, and the IC50 [1] was 2.02 µM, the IC50 [2] was 2.59 µM and the IC50 [3] was 2.61 µM. For the same compound, the IC50 [4] was 1.56 µM, the IC50 [5] was 3.23 µM and the IC50 [6] was 2.16 µM. It also gave an IC50 [7] of 5.56 µM.
`COc1ccc(-c2cnc3cncc(Nc4cc(OC)ccc4OC)c3n2)cc1` was tested, and the IC50 [1] was 3.79 µM, the IC50 [2] was 13.1 µM and the IC50 [3] was 8.57 µM. For the same compound, the IC50 [4] was 1.6 µM, the IC50 [5] was 1.45 µM and the IC50 [6] was 1.37 µM. It also gave an IC50 [7] of 2.01 µM.
`COc1cccc(Nc2cncc3nc(-c4ccc(N5CCCCC5)cc4)cnc23)c1` was tested, and the IC50 [1] was > 100 µM, the IC50 [2] was > 100 µM and the IC50 [3] was > 100 µM. For the same compound, the IC50 [4] was > 100 µM, the IC50 [5] was > 100 µM and the IC50 [6] was 7.91 µM. The IC50 [7] was > 31.6 µM.
